Experimental data reported in patent US20140323300A1, “HERBICIDAL COMPOUNDS” (SYNGENTA LIMITED, priority 2011, published 2014).

Key:
Format in all cases: in vivo
[1] = tested on: Ipomoea hederacea (IPOHE); test: Pre-emergence glasshouse herbicide test; conditions: pre-emergence (sprayed after one day cultivation), 1000 g/h, evaluated after 13 days, five point scale
Protocol: (§1) Seeds of a variety of test species are sown in standard soil in pots (Alopecurus myosuroides (ALOMY), Setaria faberi (SETFA), Echinochloa crus-galli (ECHCG), Solanum nigrum (SOLNI), Amaranthus retoflexus (AMARE), Ipomoea hederacea (IPOHE)). After cultivation for one day (pre-emergence) or after 8 days cultivation (post-emergence) under controlled conditions in a glasshouse (at 24/16° C., day/night; 14 hours light; 65% humidity), the plants are sprayed with an aqueous spray solution derived from the formulation of the technical active ingredient in acetone/water (50:50) solution containing 0.5% Tween 20 (polyoxyethelyene sorbitan monolaurate, CAS RN 9005-64-5). Compounds are applied at 1000 g/h. The test plants are then grown in a glasshouse under controlled conditions in a glasshouse (at 24/16° C., day/night; 14 hours light; 65% humidity) and watered twice daily. After 13 days for pre and post-emergence, the test is evaluated for the percentage damage caused to the plant. The biological activities are shown in the following table on a five point scale (5=80-100%; 4=60-79%; 3=40-59%; 2=20-39%; 1=0-19%).

Setaria faberi (SETFA) [2] = test: Pre-emergence glasshouse herbicide test; conditions: pre-emergence (sprayed after one day cultivation), 1000 g/h, evaluated after 13 days, five point scale
Protocol: as §1

[3] = tested on: Echinochloa crus-galli (ECHCG); test: Pre-emergence glasshouse herbicide test; conditions: pre-emergence (sprayed after one day cultivation), 1000 g/h, evaluated after 13 days, five point scale
Protocol: as §1

[4] = tested on: Amaranthus retoflexus (AMARE); test: Pre-emergence glasshouse herbicide test; conditions: pre-emergence (sprayed after one day cultivation), 1000 g/h, evaluated after 13 days, five point scale
Protocol: as §1

[5] = tested on: Alopecurus myosuroides (ALOMY); test: Pre-emergence glasshouse herbicide test; conditions: pre-emergence (sprayed after one day cultivation), 1000 g/h, evaluated after 13 days, five point scale
Protocol: as §1

Solanum nigrum (SOLNI) [6] = test: Pre-emergence glasshouse herbicide test; conditions: pre-emergence (sprayed after one day cultivation), 1000 g/h, evaluated after 13 days, five point scale
Protocol: as §1

[7] = tested on: Ipomoea hederacea (IPOHE); test: Post-emergence glasshouse herbicide test; conditions: post-emergence (sprayed after 8 days cultivation), 1000 g/h, evaluated after 13 days, five point scale
Protocol: as §1

Setaria faberi (SETFA) [8] = test: Post-emergence glasshouse herbicide test; conditions: post-emergence (sprayed after 8 days cultivation), 1000 g/h, evaluated after 13 days, five point scale
Protocol: as §1

[9] = tested on: Echinochloa crus-galli (ECHCG); test: Post-emergence glasshouse herbicide test; conditions: post-emergence (sprayed after 8 days cultivation), 1000 g/h, evaluated after 13 days, five point scale
Protocol: as §1

[10] = tested on: Amaranthus retoflexus (AMARE); test: Post-emergence glasshouse herbicide test; conditions: post-emergence (sprayed after 8 days cultivation), 1000 g/h, evaluated after 13 days, five point scale
Protocol: as §1

[11] = tested on: Alopecurus myosuroides (ALOMY); test: Post-emergence glasshouse herbicide test; conditions: post-emergence (sprayed after 8 days cultivation), 1000 g/h, evaluated after 13 days, five point scale
Protocol: as §1

Solanum nigrum (SOLNI) [12] = test: Post-emergence glasshouse herbicide test; conditions: post-emergence (sprayed after 8 days cultivation), 1000 g/h, evaluated after 13 days, five point scale
Protocol: as §1

| SMILES | percentage damage caused to the plant, PRE Application IPOHE [1] | percentage damage caused to the plant, PRE Application SETFA (Setaria faberi (SETFA) [2]) | percentage damage caused to the plant, PRE Application ECHCG [3] | percentage damage caused to the plant, PRE Application AMARE [4] | percentage damage caused to the plant, PRE Application ALOMY [5] | percentage damage caused to the plant, PRE Application SOLNI (Solanum nigrum (SOLNI) [6]) | percentage damage caused to the plant, POST Application IPOHE [7] | percentage damage caused to the plant, POST Application SETFA (Setaria faberi (SETFA) [8]) | percentage damage caused to the plant, POST Application ECHCG [9] | percentage damage caused to the plant, POST Application AMARE [10] | percentage damage caused to the plant, POST Application ALOMY [11] | percentage damage caused to the plant, POST Application SOLNI (Solanum nigrum (SOLNI) [12]) |
| --- | --- | --- | --- | --- | --- | --- | --- | --- | --- | --- | --- | --- |
| CS(=O)(=O)c1ccc(-n2ncc(Cl)c(O)c2=O)c(Cl)c1C1=NOCC1 [Compound 1.017] | 5 (5=80-100%) | 5 (5=80-100%) | 5 (5=80-100%) | 5 (5=80-100%) | 5 (5=80-100%) | 5 (5=80-100%) | 5 (5=80-100%) | 5 (5=80-100%) | 5 (5=80-100%) | 5 (5=80-100%) | 5 (5=80-100%) | 5 (5=80-100%) |
| CSc1cnn(-c2ccc(S(C)(=O)=O)c(C3=NOCC3)c2C)c(=O)c1O [Compound 1.018, 2-[3-(4,5-dihydroisoxazol-3-yl)-2-methyl-4-methylsulfonyl-phenyl]-4-hydroxy-5-methylsulfanyl-pyridazin-3-one] | 5 (5=80-100%) | 2 (2=20-39%) | 2 (2=20-39%) | 5 (5=80-100%) | 2 (2=20-39%) | 5 (5=80-100%) | 5 (5=80-100%) | 2 (2=20-39%) | 2 (2=20-39%) | 5 (5=80-100%) | 2 (2=20-39%) | 5 (5=80-100%) |
| Cc1nc(C(F)(F)F)ccc1-n1ncc(Cl)c(O)c1=O [Compound 1.019] | 5 (5=80-100%) | 5 (5=80-100%) | 5 (5=80-100%) | 5 (5=80-100%) | 5 (5=80-100%) | 5 (5=80-100%) | 5 (5=80-100%) | 5 (5=80-100%) | 5 (5=80-100%) | 5 (5=80-100%) | 5 (5=80-100%) | 5 (5=80-100%) |
| Cc1cnn(-c2ccc(C(F)(F)F)nc2C)c(=O)c1O [Compound 1.020] | 5 (5=80-100%) | 5 (5=80-100%) | 5 (5=80-100%) | 5 (5=80-100%) | 3 (3=40-59%) | 5 (5=80-100%) | 5 (5=80-100%) | 5 (5=80-100%) | 5 (5=80-100%) | 5 (5=80-100%) | 3 (3=40-59%) | 5 (5=80-100%) |
| C=Cc1cnn(-c2ccc(C(F)(F)F)nc2C)c(=O)c1O [Compound 1.021] | 5 (5=80-100%) | 5 (5=80-100%) | 5 (5=80-100%) | 5 (5=80-100%) | 3 (3=40-59%) | 5 (5=80-100%) | 5 (5=80-100%) | 5 (5=80-100%) | 5 (5=80-100%) | 5 (5=80-100%) | 3 (3=40-59%) | 5 (5=80-100%) |
| CCc1cnn(-c2ccc(C(F)(F)F)nc2C)c(=O)c1O [Compound 1.022] | 4 (4=60-79%) | 4 (4=60-79%) | 5 (5=80-100%) | 5 (5=80-100%) | 4 (4=60-79%) | 5 (5=80-100%) | 4 (4=60-79%) | 4 (4=60-79%) | 5 (5=80-100%) | 5 (5=80-100%) | 4 (4=60-79%) | 5 (5=80-100%) |
| Cc1nc(C(F)(F)F)ccc1-n1ncc(Br)c(O)c1=O [Compound 1.023] | 5 (5=80-100%) | 5 (5=80-100%) | 5 (5=80-100%) | 5 (5=80-100%) | 3 (3=40-59%) | 5 (5=80-100%) | 5 (5=80-100%) | 5 (5=80-100%) | 5 (5=80-100%) | 5 (5=80-100%) | 3 (3=40-59%) | 5 (5=80-100%) |
| C=C(C)c1cnn(-c2ccc(C(F)(F)F)nc2C)c(=O)c1O [Compound 1.024] | 5 (5=80-100%) | 5 (5=80-100%) | 5 (5=80-100%) | 5 (5=80-100%) | 5 (5=80-100%) | 5 (5=80-100%) | 5 (5=80-100%) | 5 (5=80-100%) | 5 (5=80-100%) | 5 (5=80-100%) | 5 (5=80-100%) | 5 (5=80-100%) |
| CSc1cnn(-c2ccc(C(F)(F)F)nc2C)c(=O)c1O [Compound 1.025] | 5 (5=80-100%) | 5 (5=80-100%) | 5 (5=80-100%) | 5 (5=80-100%) | 2 (2=20-39%) | 5 (5=80-100%) | 5 (5=80-100%) | 5 (5=80-100%) | 5 (5=80-100%) | 5 (5=80-100%) | 2 (2=20-39%) | 5 (5=80-100%) |
